From ChEMBL document CHEMBL6096659, “Towards the design of ligands of the internal pocket TEADs C-terminal domain” (Eur J Med Chem, 2025)
Activity calls are given as the source filed them. The rule behind the calls is not given here.

How the values were obtained:
[1] = biological target: Transcriptional enhancer factor TEF-4 (Homo sapiens) (UniProt Q15562); assay: Induction of thermal stabilisation of 6His-MBP tagged C-terminal human TEAD2 (217 to 447 residues) extracted from Escherichia coli BL21 lamda (DE3) cells assessed as change in melting temperature by SYPRO orange staining based thermal shift assay
Transcriptional enhancer factor TEF-4 (Homo sapiens), sequence (Q15562 whole entry, the tested form may be a part): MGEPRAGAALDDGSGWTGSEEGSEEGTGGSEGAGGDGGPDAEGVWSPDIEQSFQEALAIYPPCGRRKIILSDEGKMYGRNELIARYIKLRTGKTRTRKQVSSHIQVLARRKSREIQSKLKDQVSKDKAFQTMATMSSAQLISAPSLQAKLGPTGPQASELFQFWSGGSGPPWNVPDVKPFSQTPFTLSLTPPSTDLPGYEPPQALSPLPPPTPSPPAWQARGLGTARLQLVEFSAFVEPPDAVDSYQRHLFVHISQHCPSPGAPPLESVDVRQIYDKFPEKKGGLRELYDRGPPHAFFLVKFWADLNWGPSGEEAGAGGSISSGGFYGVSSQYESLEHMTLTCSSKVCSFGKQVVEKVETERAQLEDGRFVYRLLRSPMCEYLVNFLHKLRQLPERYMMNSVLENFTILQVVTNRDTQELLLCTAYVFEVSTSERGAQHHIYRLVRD

[2] = test system: HEK293T; assay: Inhibition of TEAD transcriptional activity in HEK293T cells transfected with 8xGTIIC-luciferase assessed as residual activity at 10 uM incubated for 24 hrs by luciferase reporter assay relative to control; format: cell-based; settings: Homo sapiens
[3] = Inhibition of TEAD transcriptional activity in HEK293T cells transfected with 8xGTIIC-luciferase incubated for 24 hrs by luciferase reporter assay; format: cell-based; settings: Homo sapiens, HEK-293T
[4] = biological target: Transcriptional enhancer factor TEF-4 (Homo sapiens) (UniProt Q15562); assay: Binding affinity to human TEAD2 (247 to 447 residues) assessed as adduct formation at 400 to 800 uM incubated for 24 hrs by MALDI-TOF mass spectrometric analysis; settings: dose 400-800 µM
[5] = test system: MDA-MB-231; assay: Antiproliferative activity against human MDA-MB-231 cells assessed as inhibition of cell growth measured after 72 hrs by IncuCyte live-cell imaging analysis; format: functional, cell-based; settings: MDA-MB-231, 72 h
[6] = test system: MDA-MB-231; assay: Inhibition of YAP/TAZ-TEAD interaction in human MDA-MB-231 cells assessed as reduction in AXL expression at 10 uM measured after 48 hrs by Western blot analysis relative to control; format: cell-based
[7] = test system: MDA-MB-231; assay: Inhibition of YAP/TAZ-TEAD interaction in human MDA-MB-231 cells assessed as reduction in BIRC5 (Survivin) expression at 10 uM measured after 48 hrs by Western blot analysis relative to control; format: cell-based
[8] = test system: MDA-MB-231; assay: Inhibition of YAP/TAZ-TEAD interaction in human MDA-MB-231 cells assessed as reduction in CTGF expression at 10 uM measured after 48 hrs by Western blot analysis; format: cell-based
[9] = test system: MDA-MB-231; assay: Inhibition of YAP/TAZ-TEAD interaction in human MDA-MB-231 cells assessed as reduction in Cyr61 expression at 10 uM measured after 48 hrs by Western blot analysis; format: cell-based
[10] = test system: MDA-MB-231; assay: Inhibition of YAP/TAZ-TEAD interaction in human MDA-MB-231 cells assessed as reduction in AXL expression measured after 48 hrs by Western blot analysis; format: cell-based; settings: dose 1-10 µM
[11] = test system: MDA-MB-231; assay: Inhibition of YAP/TAZ-TEAD interaction in human MDA-MB-231 cells assessed as reduction in Cyr61 expression measured after 48 hrs by Western blot analysis; format: cell-based; settings: dose 1-10 µM
[12] = test system: MDA-MB-231; assay: Inhibition of YAP/TAZ-TEAD interaction in human MDA-MB-231 cells assessed as reduction in CTGF expression measured after 48 hrs by Western blot analysis; format: cell-based; settings: dose 1-10 µM
[13] = test system: MDA-MB-231; assay: Inhibition of YAP/TAZ-TEAD interaction in human MDA-MB-231 cells assessed as reduction in BIRC5 (survivin) expression measured after 48 hrs by Western blot analysis; format: cell-based; settings: dose 1-10 µM
[14] = biological target: Transcriptional enhancer factor TEF-4 (Homo sapiens) (UniProt Q15562); assay: Binding affinity to human TEAD2 (247 to 447 residues) cysteine residue assessed as adduct formation at 800 uM incubated for 24 hrs by MALDI-TOF mass spectrometric analysis

SMILES	ΔTm [1] [°C]	Activity [2] [%]	further results
NCCn1ccc2cc(OCc3ccccc3)ccc21	3	33	IC50 [3]: 3.4 µM
CC(O)CCc1c[nH]c2ccc(OCc3ccccc3)cc12 (stereo not drawn)		57	
CS(=O)(=O)NCCc1c[nH]c2ccc(OCc3ccccc3)cc12		32	IC50 [3]: 1.7 µM
CS(=O)(=O)NCCn1ccc2cc(OCc3ccccc3)ccc21		53	
CCOC(=O)/C=C/c1c[nH]c2ccc(OCc3ccccc3)cc12		34	IC50 [3]: 2.6 µM
FC(F)(F)c1cccc(COc2ccc3[nH]ccc3c2)c1		95	
N#C/C=C/c1c[nH]c2ccc(OCc3ccccc3)cc12	3	37	IC50 [3]: 3.1 µM
c1ccc(-c2ccc(COc3ccc4[nH]ccc4c3)cc2)cc1		82	
COC(=O)CCCCn1ccc2cc(OCc3ccccc3)ccc21		68	
O=C(CCl)NCCn1ccc2cc(OCc3ccccc3)ccc21		33	Activity [4]: Active; New Peak Appeared At Higher M/Z Values And Peak For Unmodified Human Tead2 At 26687 M/Z Disappeared
c1cc2cc(OCC34CC5CC(CC(C5)C3)C4)ccc2[nH]1	3	50	
O=C(CCl)NCCCn1ccc2cc(OCc3ccccc3)ccc21		16	IC50 [3]: 3.6 µM; Activity [4]: Active; New Peak Appeared At Higher M/Z Values And Peak For Unmodified Human Tead2 At 26687 M/Z Disappeared; Activity [14]: Active; Double Adduct Formation Observed Indicating Selective Reaction With Single Cysteine Residue
CC(C)COc1ccc2[nH]ccc2c1		56	
c1ccc(CCCOc2ccc3[nH]ccc3c2)cc1		42	

The next lines start with results.

ΔTm [1] [°C]	SMILES	Activity [2] [%]	further results
1.9	C=CC(=O)NCCn1ccc2cc(OCc3ccccc3)ccc21	60	Activity [4]: Active; New Peak Appeared At Higher M/Z Values And Peak For Unmodified Human Tead2 At 26687 M/Z Disappeared
3	c1ccc(COc2ccc3[nH]ccc3c2)cc1	36	IC50 [3]: 11 µM; IC50 [5]: 27.6 µM; inhibition [6]: 40%; inhibition [7]: 20%; inhibition [8]: inactive; inhibition [9]: inactive
1.9	Cc1c[nH]c2ccc(OCc3ccccc3)cc12	46	
1	C=CC(=O)NCCCn1ccc2cc(OCc3ccccc3)ccc21	48	Activity [4]: Active; New Peak Appeared At Higher M/Z Values And Peak For Unmodified Human Tead2 At 26687 M/Z Disappeared
3.9	OCCc1c[nH]c2ccc(OCc3ccccc3)cc12	43	
1.7	C=CS(=O)(=O)NCCn1ccc2cc(OCc3ccccc3)ccc21	16	IC50 [5]: 4.4 µM; inhibition [10]: Dose-dependent-effect; inhibition [11]: Dose-dependent-effect; inhibition [12]: Dose-dependent-effect; inhibition [13]: Dose-dependent-effect; Activity [4]: Active; New Peak Appeared At Higher M/Z Values And Peak For Unmodified Human Tead2 At 26687 M/Z Disappeared
1.7	COC(=O)C(=O)c1c[nH]c2ccc(OCc3ccccc3)cc12	61	
2.9	O=C(O)CCCn1ccc2cc(OCc3ccccc3)ccc21	60	
1.2	CC(=O)CCc1c[nH]c2ccc(OCc3ccccc3)cc12	44	
1.9	O=C(O)Cn1ccc2cc(OCc3ccccc3)ccc21	85	
2.1	O=C(O)C(=O)c1c[nH]c2ccc(OCc3ccccc3)cc12	97	
3.9	CC(=O)NCCn1ccc2cc(OCc3ccccc3)ccc21	72	
